# Results reported in patent publication US12215067B2, “Chemical compounds targeting the eye and use thereof in the treatment of eye diseases” (BIOPHYTIS, priority 2019, dated 2025).
# What was measured:
# [1] = Pharmacokinetic study via oral administration in mice, plasma concentrations; format: in vivo, mice C57BL/6
# Description: (§1) The pharmacokinetic study of the chemical compounds (C) following the oral administration thereof was conducted using mice C57BL/6 (January, 53940 The Genest Saint Isle, France). The chemical compounds derived from norbixin (C) were administered at a dose of 50 mg/kg of body weight. After administration, the blood was sampled at the tail at t=0.25 h; 0.5 h; 1 h; 3 h; 6 h and 8 h. The blood samples were centrifuged and the plasmas taken. The dosage of the plasma samples made it possible to determine pharmacokinetic parameters, namely Cmax, which corresponds to the maximum concentration observed after the administration of the molecule, Tmax which is the time required to reach maximum concentration after administration of the molecule and the AUC: the area under the curve which corresponds to the plasma exposure (FIG. 2).
# (§2) The LC-MSMS analysis is carried out with a HPLC 1200 Infinity chain (Agilent Technologies, Santa-Clara, United States), a UV detector and a mass spectrometer QQQ6420 (Agilent Technologies Santa-Clara, United States). The injection volume is 5 μL. The chemical compounds C are eluted on an inverse phase column C18 (2.1*50 mm, particles 3 μm; Ace-C18-Excel, AIT) with a gradient of acetonitrile and water (containing 0.1% formic acid) and a flow rate of 0.3 mL/min. The conditions of the gradient can change according to the chemical compound C analyzed. The UV detector analyzes at 460 nm and the mass spectrometer analyzed in Mode MRM—Positive.
# (§3) Table 2 discloses the pharmacokinetic results of the chemical compounds C following the administration p.o. 50 mg/kg in D-α-Tocopheryl polyethylene glycol 1000 succinate (VitE-TPGS) 20% in a sodium bicarbonate buffer (0.1M).
# [2] = tested on: primary cultures of RPE of adult pigs; conditions: 24 h after exposure; Fontaine et al. (2016); cited from earlier work
# [3] = tested on: primary cultures of RPE of adult pigs; test: In vitro photoprotection of RPE cells illuminated with blue light in the presence of A2E; format: cell-based, pig; conditions: A2E 30 μM, survival 24 h after illumination; for viability at 5 µM / viability at 10 µM / viability at 20 µM: Sus scrofa, RPE
# Description: In addition to better distribution in the target-tissue, selecting new compounds must also be based on good photo-protective activity that limits the loss of the cells of the RPE and thus reducing the retinal degeneration observed during the AMD and other degenerative diseases such as Retinitis pigmentosa and Stargardt's disease. At the cellular level, on cultures of cells the RPE coming from pig retina, Fontaine et al. (2016) have shown that a treatment with norbixin (BIO201) protects the cells of the RPE against apoptosis following an illumination in the presence of A2E (80% survival 24 h after exposure). This same screening test according to the percentage of photoprotection was used so as to determine its modulation by and the chemical compounds derived from norbixin (C) object of the present invention in comparison with the photo-protective effect of norbixin and characterize these modulations from a statical standpoint.
# The test in vitro described hereinabove and intended to study the photo-protective effect of norbixin was used so as to quantify the photo-protective effects of the various chemical compounds derived from norbixin (C) on the cells of the RPE illuminated with blue light in the presence of A2E (FIG. 3). The photo-protective effect of the molecules was evaluated in a phototoxicity cellular model induced by treatment by A2E followed by an illumination with blue light. The term “blue radiation” means the radiation corresponding to the blue band of the visible light spectrum, i.e. of a wavelength comprised between 435 and 490 nm. This model uses primary cultures of RPE of adult pigs. The cell survival is quantified thanks to a test of cellular viability. At −48 h the compounds to be tested (in solution at 5 mM in the DMSO) are added to obtain the final concentrations of 1 to 20 μM) then at −19 h of the A2E (final concentration 30 μM) and the cells (time 0 h) are illuminated. 24 h after the survival of the cells is measured. The acquisition of images, as well as the processing thereof, are carried out using a fluorescence microscope controlled by the Metamorph software and a dedicated quantification program. The experiments are conducted on a 96-well microplate in quadruplicate and the experiment is reproduced at least four times. The results are expressed in the form of a ratio representing the number of living cells in the wells treated by the molecules to be tested, divided by the number of living cells in the controlled wells (treated by the dilution medium without A2E). This test made it possible hereinabove to reveal the photo-protective activity of norbixin (Fontaine et al. 2016).
# [4] = Pharmacokinetic study via oral administration in mice, ocular concentrations; format: in vivo, mice C57BL/6; conditions: for Eye Exposure 50 mg/kg p.o. AUC: Table 3, repeats the eye exposure of Table 2; for Tmax: C57BL/6, mouse, eye, po
# Description: as §1
# In parallel, the ocular concentrations of the chemical compounds derived from norbixin (C) were dosed in the following way (FIG. 1): both eyes of each mouse were taken in Precellys tubes and stored at −80° C. until the time of dosing. The eyes are then ground in the Precellys tubes with a bench homogenizer, Fast-prep (Fischer Scientific, Hampton, United States) in a mixture of organic solvents, in a first step with 500 μL of chloroform/methanol (1/1, v/v) then 500 μL of chloroform/dichloromethane (1/1, v/v). The supernatants are recovered at each step and transferred to a 96-well plate of 2 mL.
# For the quantification of the chemical compounds C, a calibration curve is carried out with 8 standards (5 to 5,000 ng/mL) in the same organic solvent mixtures and transferred (100 μL) to the 96-well plate of 2 mL.
# The supernatants and standards are evaporated in a EZ2 (Genevac, Ipswich, United Kingdom), without heating, then taken with 100 μL of DMSO/methanol (20:80, v/v) before being transferred to a 96-well plate of 200 μL.
# as §2, §3
# [5] = mice, p.o. 50 mg/kg in VitE-TPGS 20% in sodium bicarbonate buffer (0.1M)
# [6] = C57BL/6, mouse, in vivo, po, 50 mg/kg
Eye Exposure 50 mg/kg p.o. AUC [4],"Eye CMax [4, 5]","Cmax [1, 6]","Plasma Exposure [1, 6]","Tmax [1, 6]","Tmax [4, 5]",Compound,"Plasma CMax [1, 5]","Plasma TMax [1, 5]","Plasma Exposure ([1]; mice, p.o. 50 mg/kg in VitE-TPGS 20% in sodium bicarbonate buffer (0.1M), area under the curve)",survival of RPE cells after illumination in the presence of A2E [2],Photoprotection (%) 5 μM Mean ([3]; 5 μM compound),Photoprotection (%) 10 μM Mean ([3]; 10 μM compound),Photoprotection (%) 20 μM Mean ([3]; 20 μM compound),"Eye TMax [4, 5]",viability at 5 µM ([3]; 5 μM compound),viability at 10 µM ([3]; 10 μM compound),viability at 20 µM ([3]; 20 μM compound)
54.7 ng · h/eye,11 ng/eye,5010 ng/mL,24.1 µg·h/mL,1 h,2 h,"CCOCC1CCN(C(=O)/C=C/C(C)=C/C=C/C(C)=C/C=C/C=C(C)/C=C/C=C(C)\C=C\C(=O)O)CC1 [C23, 1-[4-ethylmethoxypiperidinamido](2E,4E,6E,8E,10E,12E,14E,16Z,18E)-4,8,13,17-tetramethylicosa-2,4,6,8,10,12,14,16,18-nonaenedioate]",,,,,,,,,38.4%,59.2%,73.1%
499.1 ng · h/eye,96 ng/eye,48300 ng/mL,141.9 µg·h/mL,0.5 h,1.5 h,"COC1CCN(C(=O)/C=C/C(C)=C/C=C/C(C)=C/C=C/C=C(C)/C=C/C=C(C)\C=C\C(=O)O)CC1 [C24, 1-[4-methoxypiperidinamido](2E,4E,6E,8E,10E,12E,14E,16Z,18E)-4,8,13,17-tetramethylicosa-2,4,6,8,10,12,14,16,18-nonaenedioate]",,,,,,,,,47%,69%,84%

Compound,Eye Exposure 50 mg/kg p.o. AUC [4],"Eye CMax [4, 5]","Cmax [1, 6]","Plasma Exposure [1, 6]","Tmax [1, 6]","Tmax [4, 5]","Plasma CMax [1, 5]","Plasma TMax [1, 5]","Plasma Exposure ([1]; mice, p.o. 50 mg/kg in VitE-TPGS 20% in sodium bicarbonate buffer (0.1M), area under the curve)",survival of RPE cells after illumination in the presence of A2E [2],Photoprotection (%) 5 μM Mean ([3]; 5 μM compound),Photoprotection (%) 10 μM Mean ([3]; 10 μM compound),Photoprotection (%) 20 μM Mean ([3]; 20 μM compound),"Eye TMax [4, 5]",viability at 5 µM ([3]; 5 μM compound),viability at 10 µM ([3]; 10 μM compound),viability at 20 µM ([3]; 20 μM compound)
"CC(/C=C/C=C(C)/C=C/C(=O)O)=C\C=C\C=C(C)\C=C\C=C(C)\C=C\C(=O)O [BIO201, 6,6′-diapocarotene-6,6′-dioate, reference compound]",22.4 ng · h/eye,8.6 ng/eye,,,,,34.99 µg/mL,0.25 h,100.7 µg·h/mL,80%,19.2%,34.1%,63.6%,0.5 h,,,
